In ChEMBL document CHEMBL1255313 (Antimicrob Agents Chemother, 2008):

Experiments:
Homo sapiens [1] = test: AUC (0 to infinity) in healthy human plasma assessed as hydroxybupropion level at 150 mg, po co-treated with ritonavir 200 mg tid for 1 day, 300 mg bid for next 2 days measured after 48 hrs; format: ADME, organism-based; set-up: dose 150 mg, time infinity, route oral; conditions: in vivo
Homo sapiens [2] = test: AUC (0 to infinity) in healthy human plasma assessed as hydroxybupropion level at 150 mg, po co-treated with ritonavir 200 mg tid for 1 day, 300 mg bid for next 6 days, 400 mg bid upto 17 day of study measured after 48 hrs; format: ADME, organism-based; set-up: dose 150 mg, route oral, time infinity; conditions: in vivo
Homo sapiens [3] = test: Tmax in healthy human plasma assessed as hydroxybupropion level at 150 mg, po co-treated with ritonavir 200 mg tid for 1 day, 300 mg bid for next 2 days measured after 48 hrs; format: ADME, organism-based; conditions: in vivo
Homo sapiens [4] = test: Tmax in healthy human plasma assessed as hydroxybupropion level at 150 mg, po co-treated with ritonavir 200 mg tid for 1 day, 300 mg bid for next 6 days, 400 mg bid upto 17 day of study measured after 48 hrs; format: ADME, organism-based; conditions: in vivo
Homo sapiens [5] = test: AUC (0 to 72) in healthy human plasma assessed as hydroxybupropion level at 150 mg, po co-treated with ritonavir 200 mg tid for 1 day, 300 mg bid for next 2 days measured after 48 hrs; format: ADME, organism-based; set-up: time < 72 hr, dose 150 mg, route oral; conditions: in vivo, 72 h
Homo sapiens [6] = test: AUC (0 to 72) in healthy human plasma assessed as hydroxybupropion level at 150 mg, po co-treated with ritonavir 200 mg tid for 1 day, 300 mg bid for next 6 days, 400 mg bid upto 17 day of study measured after 48 hrs; format: ADME, organism-based; set-up: dose 150 mg, time < 72 hr, route oral; conditions: in vivo, 72 h
Homo sapiens [7] = test: AUC (0 to 72) in healthy human plasma assessed as (R,R)-hydroxybupropion level at 150 mg, po co-treated with ritonavir 200 mg tid for 1 day, 300 mg bid for next 2 days measured after 48 hrs by high-performance liquid chromatography-tandem mass spectrometry; format: ADME, organism-based; set-up: time < 72 hr, dose 150 mg, route oral; conditions: in vivo, 72 h
Homo sapiens [8] = test: AUC (0 to 72) in healthy human plasma assessed as (R,R)-hydroxybupropion level at 150 mg, po co-treated with ritonavir 200 mg tid for 1 day, 300 mg bid for next 6 days, 400 mg bid upto 17 day of study measured after 48 hrs by high-performance liquid chromatography-tandem mass spectrometry; format: ADME, organism-based; set-up: dose 150 mg, time < 72 hr, route oral; conditions: in vivo, 72 h
Homo sapiens [9] = test: AUC (0 to infinity) in healthy human plasma assessed as (R,R)-hydroxybupropion level at 150 mg, po co-treated with ritonavir 200 mg tid for 1 day, 300 mg bid for next 2 days measured after 48 hrs by high-performance liquid chromatography-tandem mass spectrometry; format: ADME, organism-based; set-up: dose 150 mg, time infinity, route oral; conditions: in vivo
Homo sapiens [10] = test: AUC (0 to infinity) in healthy human plasma assessed as (R,R)-hydroxybupropion level at 150 mg, po co-treated with ritonavir 200 mg tid for 1 day, 300 mg bid for next 6 days, 400 mg bid upto 17 day of study measured after 48 hrs by high-performance liquid chromatography-tandem mass spectrometry; format: ADME, organism-based; set-up: dose 150 mg, time infinity, route oral; conditions: in vivo
Homo sapiens [11] = test: Tmax in healthy human plasma assessed as (R,R)-hydroxybupropion level at 150 mg, po co-treated with ritonavir 200 mg tid for 1 day, 300 mg bid for next 2 days measured after 48 hrs by high-performance liquid chromatography-tandem mass spectrometry; format: ADME, organism-based; conditions: in vivo
Homo sapiens [12] = test: Tmax in healthy human plasma assessed as (R,R)-hydroxybupropion level at 150 mg, po co-treated with ritonavir 200 mg tid for 1 day, 300 mg bid for next 6 days, 400 mg bid upto 17 day of study measured after 48 hrs by high-performance liquid chromatography-tandem mass spectrometry; format: ADME, organism-based; conditions: in vivo
Homo sapiens [13] = test: AUC (0 to 72) in healthy human plasma assessed as (S,S)-hydroxybupropion level at 150 mg, po co-treated with ritonavir 200 mg tid for 1 day, 300 mg bid for next 2 days measured after 48 hrs by high-performance liquid chromatography-tandem mass spectrometry; format: ADME, organism-based; set-up: dose 150 mg, time < 72 hr, route oral; conditions: in vivo, 72 h
Homo sapiens [14] = test: AUC (0 to 72) in healthy human plasma assessed as (S,S)-hydroxybupropion level at 150 mg, po co-treated with ritonavir 200 mg tid for 1 day, 300 mg bid for next 6 days, 400 mg bid upto 17 day of study measured after 48 hrs by high-performance liquid chromatography-tandem mass spectrometry; format: ADME, organism-based; set-up: dose 150 mg, time < 72 hr, route oral; conditions: in vivo, 72 h
Homo sapiens [15] = test: AUC (0 to infinity) in healthy human plasma assessed as (S,S)-hydroxybupropion level at 150 mg, po co-treated with ritonavir 200 mg tid for 1 day, 300 mg bid for next 2 days measured after 48 hrs by high-performance liquid chromatography-tandem mass spectrometry; format: ADME, organism-based; set-up: dose 150 mg, time infinity, route oral; conditions: in vivo
Homo sapiens [16] = test: AUC (0 to infinity) in healthy human plasma assessed as (S,S)-hydroxybupropion level at 150 mg, po co-treated with ritonavir 200 mg tid for 1 day, 300 mg bid for next 6 days, 400 mg bid upto 17 day of study measured after 48 hrs by high-performance liquid chromatography-tandem mass spectrometry; format: ADME, organism-based; set-up: dose 150 mg, time infinity, route oral; conditions: in vivo
[17] = AUC in healthy human plasma at 400 mg, po bid for 2 weeks; format: ADME, organism-based
[18] = AUC in healthy human plasma at 100 mg, po bid for 2 weeks; format: ADME, organism-based
[19] = Apparent renal clearance in human at 150 mg, po co-treated with ritonavir 200 mg tid for 1 day, 300 mg bid for next 2 days using 0-48 hrs urine sample; format: ADME, organism-based; conditions: read-out: CL_renal
[20] = Apparent renal clearance in human at 150 mg, po co-treated with ritonavir 200 mg tid for 1 day, 300 mg bid for next 6 days, 400 mg bid upto 17 day of study using 0-48 hrs urine sample; format: ADME, organism-based; conditions: read-out: CL_renal
Homo sapiens [21] = test: Apparent renal clearance in human assessed as Hydroxybupropion at 150 mg, po co-treated with ritonavir 200 mg tid for 1 day, 300 mg bid for next 2 days using 0-48 hrs urine sample; format: ADME, organism-based; conditions: in vivo
Homo sapiens [22] = test: Apparent renal clearance in human assessed as Hydroxybupropion at 150 mg, po co-treated with ritonavir 200 mg tid for 1 day, 300 mg bid for next 6 days, 400 mg bid upto 17 day of study using 0-48 hrs urine sample; format: ADME, organism-based; conditions: in vivo
Homo sapiens [23] = test: Apparent renal clearance in human assessed as (R,R)-Hydroxybupropion at 150 mg, po co-treated with ritonavir 200 mg tid for 1 day, 300 mg bid for next 2 days using 0-48 hrs urine sample by high-performance liquid chromatography-tandem mass spectrometry; format: ADME, organism-based; conditions: in vivo
Homo sapiens [24] = test: Apparent renal clearance in human assessed as (R,R)-Hydroxybupropion at 150 mg, po co-treated with ritonavir 200 mg tid for 1 day, 300 mg bid for next 6 days, 400 mg bid upto 17 day of study using 0-48 hrs urine sample by high-performance liquid chromatography-tandem mass spectrometry; format: ADME, organism-based; conditions: in vivo
Homo sapiens [25] = test: Apparent renal clearance in human assessed as (S,S)-Hydroxybupropion at 150 mg, po co-treated with ritonavir 200 mg tid for 1 day, 300 mg bid for next 2 days using 0-48 hrs urine sample by high-performance liquid chromatography-tandem mass spectrometry; format: ADME, organism-based; conditions: in vivo
Homo sapiens [26] = test: Apparent renal clearance in human assessed as (S,S)-Hydroxybupropion at 150 mg, po co-treated with ritonavir 200 mg tid for 1 day, 300 mg bid for next 6 days, 400 mg bid upto 17 day of study using 0-48 hrs urine sample by high-performance liquid chromatography-tandem mass spectrometry; format: ADME, organism-based; conditions: in vivo
[27] = Apparent clearance with respect to oral bioavailability in human at 150 mg, po co-treated with ritonavir 200 mg tid for 1 day, 300 mg bid for next 6 days, 400 mg bid upto 17 day of study measured after 48 hrs; format: ADME, organism-based; conditions: in vivo
[28] = AUC (0 to infinity) in healthy human plasma at 150 mg, po co-treated with ritonavir 200 mg tid for 1 day, 300 mg bid for next 6 days, 400 mg bid upto 17 day of study measured after 48 hrs; format: ADME, organism-based; set-up: dose 150 mg, time infinity, route oral
[29] = Apparent clearance with respect to oral bioavailability in human at 150 mg, po co-treated with ritonavir 200 mg tid for 1 day, 300 mg bid for next 2 days measured after 48 hrs; format: ADME, organism-based; conditions: in vivo
[30] = AUC (0 to infinity) in healthy human plasma at 150 mg, po co-treated with ritonavir 200 mg tid for 1 day, 300 mg bid for next 2 days measured after 48 hrs; format: ADME, organism-based; set-up: dose 150 mg, route oral, time infinity
Homo sapiens [31] = test: Tmax in healthy human plasma assessed as (S,S)-hydroxybupropion level at 150 mg, po co-treated with ritonavir 200 mg tid for 1 day, 300 mg bid for next 2 days measured after 48 hrs by high-performance liquid chromatography-tandem mass spectrometry; format: ADME, organism-based; conditions: in vivo
Homo sapiens [32] = test: Tmax in healthy human plasma assessed as Tmax in healthy human plasma assessed as (S,S)-hydroxybupropion level at 150 mg, po co-treated with ritonavir 200 mg tid for 1 day, 300 mg bid for next 6 days, 400 mg bid upto 17 day of study measured after 48 hrs by high-performance liquid chromatography-tandem mass spectrometry; format: ADME, organism-based; conditions: in vivo
clinical [33] = conditions: human, plasma, po
clinical [34] = conditions: human, plasma, po; remark: listed apart in the source
clinical [35] = conditions: human, plasma, po; remark: listed apart in the source
clinical [36] = conditions: human, plasma, po; remark: listed apart in the source

## CC(NC(C)(C)C)C(=O)c1cccc(Cl)c1 (racemic) [BUPROPION]
Homo sapiens [1]
  AUC: 11330 ng·h/mL
Homo sapiens [2]
  AUC: 7560 ng·h/mL
Homo sapiens [3]
  Tmax: 3.6 h
Homo sapiens [4]
  Tmax: 3.4 h
Homo sapiens [5]
  AUC: 8470 ng·h/mL
Homo sapiens [6]
  AUC: 6100 ng·h/mL
Homo sapiens [7]
  AUC: 8120 ng·h/mL
Homo sapiens [8]
  AUC: 5829 ng·h/mL
Homo sapiens [9]
  AUC: 10950 ng·h/mL
Homo sapiens [10]
  AUC: 7330 ng·h/mL
Homo sapiens [11]
  Tmax: 3.8 h
Homo sapiens [12]
  Tmax: 3.5 h
Homo sapiens [13]
  AUC: 356 ng·h/mL
Homo sapiens [14]
  AUC: 274 ng·h/mL
Homo sapiens [15]
  AUC: 404 ng·h/mL
Homo sapiens [16]
  AUC: 303 ng·h/mL
[17]
  AUC at 336 h: 57 ng·h/mL
[18]
  AUC at 336 h: 50 ng·h/mL
[19]
  CL renal: 20 mL/min
[20]
  CL renal: 21 mL/min
Homo sapiens [21]
  CL_renal: 143 mL/min
Homo sapiens [22]
  CL_renal: 183 mL/min
Homo sapiens [23]
  CL_renal: 172 mL/min
Homo sapiens [24]
  CL_renal: 217 mL/min
Homo sapiens [25]
  CL_renal: 96 mL/min
Homo sapiens [26]
  CL_renal: 134 mL/min
[27]
  CL/F: 3240 mL/min
[28]
  AUC(0-inf): 1030 ng·h/mL
[29]
  CL/F: 2470 mL/min
[30]
  AUC(0-inf): 1290 ng·h/mL
Homo sapiens [31]
  Tmax: 1.7 h
Homo sapiens [32]
  Tmax: 1.5 h
Clinical [33]
  half-life: 17.8 h
Clinical [34]
  half-life: 16.8 h
Clinical [35]
  Cmax: 267 ng/mL
Clinical [36]
  Cmax: 345 ng/mL
